Values of other authors, collected in US20040014955A1, “Identification of essential genes of cryptococcus neoformans and methods of use” (priority 2001, published 2004).
*1 amine or outer side, *2 acyl side, *3 side chain or, on linkers, in order; H or OH if unused. Where a SMILES comes first, the peptide text is derived from it. [ ]: non-standard residue; d: D form. X1 = CC[C@@H](C)[C@@H](O[*:1])C(=O)[*:2]; NMeVal(β-OH) = CN[C@H](C(=O)O)C(C)(C)O; NMeF = CN[C@@H](Cc1ccccc1)C(=O)O; NMeV = CN[C@H](C(=O)O)C(C)C

Test system: C. neoformans
Conditions: weanling outbred rats infected with C. neoformans by direct percranial puncture and inoculation into the cranium

CC[C@@H](C)[C@H]1OC(=O)[C@H](C(C)(C)O)N(C)C(=O)[C@H](CC(C)C)NC(=O)[C@H](C(C)C)N(C)C(=O)[C@H]([C@@H](C)CC)NC(=O)[C@@H]2CCCN2C(=O)[C@H](Cc2ccccc2)N(C)C(=O)[C@H](Cc2ccccc2)NC(=O)[C@H](C(C)C)N(C)C1=O [LY295337] (cyclo(F[NMeF]PI[NMeV]L[NMeVal(β-OH)][X1][NMeV]))
fungal counts in brain tissue: reducing fungal counts in brain tissue
survival: effective in prolonging survival
